Reference: US5382584A, “Adenosine re-uptake inhibiting derivatives of diphenyl oxazoles, thiazoles and imidazoles” (Bristol-Myers Squibb Company, priority 1994, dated 1995)
Structures can show the parent of a compound that is named as a salt.

Assay: neuroprotective activity of single enantiomers (test not specified)
Excerpt: A chiral synthetic procedure was also developed to provide single enantiomers of certain stereoisomeric compounds of Formula I. The procedure is illustrated in Scheme III. This synthesis results in a Formula I compound with a chiral center in the piperazine ring. […] While both enantiomers were neuroprotective, the S-(-)-enantiomer had about 30 times the activity of the R-(+)-enantiomer. [drawing 11]

| Compound | neuroprotection | activity relative to the R-(+)-enantiomer (neuroprotective activity) |
| --- | --- | --- |
| Cl.Cl.Cl.NC(=O)[C@H]1CN(Cc2nc(-c3ccccc3)c(-c3ccccc3)o2)CCN1CC(=O)Nc1c(Cl)cc(N)cc1Cl.O [R-(+)-enantiomer, R-(+)-2-(aminocarbonyl)-N-(4-amino-2,6-dichlorophenyl)-4-[(4,5-diphenyl-2-oxazolyl)methyl]-1-piperazineacetamide trihydrochloride monohydrate] | neuroprotective | – |
| NC(=O)[C@@H]1CN(Cc2nc(-c3ccccc3)c(-c3ccccc3)o2)CCN1CC(=O)Nc1c(Cl)cc(N)cc1Cl [S-(-)-enantiomer, S-(-)-2-(aminocarbonyl)-N-(4-amino-2,6-dichlorophenyl)-4-[(4,5-diphenyl-2-oxazolyl)methyl]-1-piperazineacetamide Trihydrochloride] | neuroprotective | about 30 times |
